Measured values taken from patent US20130261077A1 (priority 2012, published 2013).

Molecular target: T1, FimH-CRD (Escherichia coli, UniProt P08191)
T1 construct: The first 177 amino acids of the FimH protein; thrombin tag (printed as 'fusion protein with thrombin') (cleaved yes); made in house; host or cells: bacteria (pET21b plasmid)
Assay: Competitive binding assay by fluorescence polarization, assay 2 (compounds prepared by robotics, plates frozen and thawed)
Outline: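 Fluorescence-polarization competition of 5 nM Alexa 647 mannoside probe with 60 nM FimH-CRD (first 177 residues, tag removed) in Tris-Cl pH 7.0, NaCl, EDTA, β-ME, BSA, 2.5% DMSO, 5 h at RT in the dark. Twelve-point 3-fold titrations (0.4 nM–75 μM) in duplicate; Kd interpolated from displacement curves.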

T1 sequence (P08191 22-177): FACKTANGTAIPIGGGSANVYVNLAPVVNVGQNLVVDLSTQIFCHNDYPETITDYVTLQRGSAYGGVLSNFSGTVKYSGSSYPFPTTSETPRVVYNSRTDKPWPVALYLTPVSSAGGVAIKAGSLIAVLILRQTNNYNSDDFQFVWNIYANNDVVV

OC[C@H]1O[C@H](c2ccc3cc(O)ccc3c2)[C@@H](O)[C@@H](O)[C@@H]1O [Compound 156, (2R,3S,4R,5S,6R)-2-(hydroxymethyl)-6-(6-hydroxy-2-naphthyl)tetrahydropyran-3,4,5-triol]
Kd: 16.5 ± 4.3 nM

CNC(=O)c1cccc(Cc2cccc([C@H]3O[C@H](CO)[C@@H](O)[C@H](O)[C@@H]3O)c2)c1 [Compound 157, N-methyl-3-[[3-[(2R,3S,4R,5S,6R)-3,4,5-trihydroxy-6-(hydroxymethyl)tetrahydropyran-2-yl]phenyl]methyl]benzamide]
Kd: 34.3 ± 8.1 nM

CNC(=O)c1cccc(-c2ccc(-c3ccc([C@H]4O[C@H](CO)[C@@H](O)[C@H](O)[C@@H]4O)cc3)c(C)c2)c1 [Compound 158, N-methyl-3-[3-methyl-4-[4-[(2R,3S,4R,5S,6R)-3,4,5-trihydroxy-6-(hydroxymethyl)tetrahydropyran-2-yl]phenyl]phenyl]benzamide]
Kd: 20.5 ± 4.3 nM

CNC(=O)c1cccc(-c2ccc(-c3cccc([C@H]4O[C@H](CO)[C@@H](O)[C@H](O)[C@@H]4O)c3)c(C)c2)c1 [Compound 159, N,3′-dimethyl-3″-((2R,3S,4R,5S,6R)-3,4,5-trihydroxy-6-(hydroxymethyl)tetrahydro-2H-pyran-2-yl)-[1,1′:4′,1″-terphenyl]-3-carboxamide]
Kd: 15.6 ± 3.4 nM

Cc1nnc(-c2ccc3cc(-c4cccc([C@H]5O[C@H](CO)[C@@H](O)[C@H](O)[C@@H]5O)c4)ccc3c2)o1 [Compound 161, (2R,3S,4R,5S,6R)-2-(hydroxymethyl)-6-[3-[6-(5-methyl-1,3,4-oxadiazol-2-yl)-2-naphthyl]phenyl]tetrahydropyran-3,4,5-triol]
Kd: 6.6 ± 1.2 nM

OC[C@H]1O[C@H](c2cccc(-c3nc4c(Cl)cc(Cl)cc4[nH]3)c2)[C@@H](O)[C@@H](O)[C@@H]1O [Compound 162]
Kd: 39.5 ± 11 nM

OC[C@H]1O[C@H](c2cccc(-c3nc4ccccc4[nH]3)c2)[C@@H](O)[C@@H](O)[C@@H]1O [Compound 163]
Kd: 82.1 ± 0.6 nM

Cc1ccc2[nH]c(-c3cccc([C@H]4O[C@H](CO)[C@@H](O)[C@H](O)[C@@H]4O)c3)nc2c1 [Compound 164]
Kd: 50.2 ± 14.1 nM

OC[C@H]1O[C@H](c2cccc(-c3nc4c(F)cc(F)cc4[nH]3)c2)[C@@H](O)[C@@H](O)[C@@H]1O [Compound 165]
Kd: 28.9 ± 11.7 nM

OC[C@H]1O[C@H](c2cccc(-c3nc4cc(F)ccc4[nH]3)c2)[C@@H](O)[C@@H](O)[C@@H]1O [Compound 166]
Kd: 44.1 ± 19.9 nM

N#Cc1ccc2[nH]c(-c3cccc([C@H]4O[C@H](CO)[C@@H](O)[C@H](O)[C@@H]4O)c3)nc2c1 [Compound 167]
Kd: 32.1 ± 4.3 nM

O=C(c1ccccc1)c1ccc2[nH]c(-c3cccc([C@H]4O[C@H](CO)[C@@H](O)[C@H](O)[C@@H]4O)c3)nc2c1 [Compound 168]
Kd: 42.5 ± 18.3 nM

CS(=O)(=O)c1ccc2[nH]c(-c3cccc([C@H]4O[C@H](CO)[C@@H](O)[C@H](O)[C@@H]4O)c3)nc2c1 [Compound 169]
Kd: 25.7 ± 0.4 nM

OC[C@H]1O[C@H](c2cccc(-c3nc4cc(Cl)ccc4[nH]3)c2)[C@@H](O)[C@@H](O)[C@@H]1O [Compound 170]
Kd: 32.4 ± 14.4 nM

OC[C@H]1O[C@H](c2cccc(-c3nc4c(C(F)(F)F)cccc4[nH]3)c2)[C@@H](O)[C@@H](O)[C@@H]1O [Compound 171]
Kd: 32.1 ± 19.1 nM

CNC(=O)c1ccc2[nH]c(-c3cccc([C@H]4O[C@H](CO)[C@@H](O)[C@H](O)[C@@H]4O)c3)nc2c1 [Compound 172, N-methyl-2-(3-((2R,3S,4R,5S,6R)-3,4,5-trihydroxy-6-(hydroxymethyl)tetrahydro-2H-pyran-2-yl)phenyl)-1H-benzo[d]imidazole-5-carboxamide]
Kd: 530 ± 714 nM

CNC(=O)c1cccc2[nH]c(-c3cccc([C@H]4O[C@H](CO)[C@@H](O)[C@H](O)[C@@H]4O)c3)nc12 [Compound 173, N-methyl-2-(3-((2R,3S,4R,5S,6R)-3,4,5-trihydroxy-6-(hydroxymethyl)tetrahydro-2H-pyran-2-yl)phenyl)-1H-benzo[d]imidazole-4-carboxamide]
Kd: 54.6 ± 23 nM

OC[C@H]1O[C@H](c2cccc(-c3ccc(-c4cccnc4)cc3)c2)[C@@H](O)[C@@H](O)[C@@H]1O [Compound 174]
Kd: 13.6 ± 3.4 nM

Cc1nc(-c2ccc(-c3cccc([C@H]4O[C@H](CO)[C@@H](O)[C@H](O)[C@@H]4O)c3)cc2)no1 [Compound 175]
Kd: 10.2 ± 0.04 nM

Cc1nnc(-c2ccc(-c3cccc([C@H]4O[C@H](CO)[C@@H](O)[C@H](O)[C@@H]4O)c3)cc2)s1 [Compound 176]
Kd: 21.1 ± 2.6 nM

Cc1nc(-c2ccc(-c3cccc([C@H]4O[C@H](CO)[C@@H](O)[C@H](O)[C@@H]4O)c3)cc2)cs1 [Compound 177]
Kd: 12.1 ± 5.8 nM

OC[C@H]1O[C@H](c2cccc(-c3ccc(-c4nnco4)cc3)c2)[C@@H](O)[C@@H](O)[C@@H]1O [Compound 178]
Kd: 17.9 ± 3.7 nM

Cn1cnc2cc(-c3cccc([C@H]4O[C@H](CO)[C@@H](O)[C@H](O)[C@@H]4O)c3)ccc21 [Compound 179, (2R,3S,4R,5S,6R)-2-(hydroxymethyl)-6-(3-(1-methyl-1H-benzo[d]imidazol-5-yl)phenyl)tetrahydro-2H-pyran-3,4,5-triol]
Kd: 20.4 ± 0.8 nM

CNC(=O)Cc1nnc(-c2ccc(-c3cccc([C@H]4O[C@H](CO)[C@@H](O)[C@H](O)[C@@H]4O)c3)cc2)o1 [Compound 181, N-methyl-2-(5-(3′-((2R,3S,4R,5S,6R)-3,4,5-trihydroxy-6-(hydroxymethyl)tetrahydro-2H-pyran-2-yl)-[1,1′-biphenyl]-4-yl)-1,3,4-oxadiazol-2-yl)acetamide]
Kd: 21.7 ± 4.2 nM

COCCOCCNC(=O)Cc1nnc(-c2ccc(-c3cccc([C@H]4O[C@H](CO)[C@@H](O)[C@H](O)[C@@H]4O)c3)cc2)o1 [Compound 182, N-(2-(2-methoxyethoxy)ethyl)-2-(5-(3′-((2R,3S,4R,5S,6R)-3,4,5-trihydroxy-6-(hydroxymethyl)tetrahydro-2H-pyran-2-yl)-[1,1′-biphenyl]-4-yl)-1,3,4-oxadiazol-2-yl)acetamide]
Kd: 20.2 ± 4.7 nM

Cc1nnc(-c2ccc(-c3cccc([C@H]4O[C@H](CO)[C@@H](O)[C@H](O)[C@@H]4O)c3)nc2)o1 [Compound 183, (2R,3S,4R,5S,6R)-2-(hydroxymethyl)-6-(3-(5-(5-methyl-1,3,4-oxadiazol-2-yl)pyridin-2-yl)phenyl)tetrahydro-2H-pyran-3,4,5-triol]
Kd: 24.8 ± 8.3 nM

CC(=O)c1ccc(-c2cccc([C@H]3O[C@H](CO)[C@@H](O)[C@H](O)[C@@H]3O)c2)cc1 [Compound 184, 1-(3′-((2R,3S,4R,5S,6R)-3,4,5-trihydroxy-6-(hydroxymethyl)tetrahydro-2H-pyran-2-yl)-[1,1′-biphenyl]-4-yl)ethanone]
Kd: 18.2 ± 8.4 nM

N#Cc1ccc(Oc2cccc([C@H]3O[C@H](CO)[C@@H](O)[C@H](O)[C@@H]3O)c2)cc1 [Compound 185, 4-[3-[(2R,3S,4R,5S,6R)-3,4,5-trihydroxy-6-(hydroxymethyl)tetrahydropyran-2-yl]phenoxy]benzonitrile]
Kd: 11.7 ± 7.5 nM

CC(=O)c1ccc(Oc2cccc([C@H]3O[C@H](CO)[C@@H](O)[C@H](O)[C@@H]3O)c2)cc1 [Compound 186, 1-[4-[3-[(2R,3S,4R,5S,6R)-3,4,5-trihydroxy-6-(hydroxymethyl)tetrahydropyran-2-yl]phenoxy]phenyl]ethanone]
Kd: 12.3 ± 8.9 nM

CNC(=O)c1ccc(Oc2cc([C@H]3O[C@H](CO)[C@@H](O)[C@H](O)[C@@H]3O)ccc2OC)cc1 [Compound 187, 4-[2-methoxy-5-[(2R,3S,4R,5S,6R)-3,4,5-trihydroxy-6-(hydroxymethyl)tetrahydropyran-2-yl]phenoxy]-N-methyl-benzamide]
Kd: 9.9 ± 1.9 nM

CNC(=O)c1cccc(Oc2cc([C@H]3O[C@H](CO)[C@@H](O)[C@H](O)[C@@H]3O)ccc2OC)c1 [Compound 188, 3-[2-methoxy-5-[(2R,3S,4R,5S,6R)-3,4,5-trihydroxy-6-(hydroxymethyl)tetrahydropyran-2-yl]phenoxy]-N-methyl-benzamide]
Kd: 11.1 ± 1.1 nM

COC(=O)c1ccc(Oc2cc([C@H]3O[C@H](CO)[C@@H](O)[C@H](O)[C@@H]3O)ccc2OC)cc1 [Compound 189, Methyl-4-[2-methoxy-5-[(2R,3S,4R,5S,6R)-3,4,5-trihydroxy-6-(hydroxymethyl)tetrahydropyran-2-yl]phenoxy]benzoate]
Kd: 8.1 ± 2.7 nM

OC[C@H]1O[C@H](c2cccc(O)c2F)[C@@H](O)[C@@H](O)[C@@H]1O [Compound 190, (2R,3S,4R,5S,6R)-2-(2-fluoro-3-hydroxy-phenyl)-6-(hydroxymethyl)tetrahydropyran-3,4,5-triol]
Kd: 24.1 ± 15.3 nM

OC[C@H]1O[C@H](c2cc(O)ccc2OC(F)(F)F)[C@@H](O)[C@@H](O)[C@@H]1O [Compound 191, (2R,3S,4R,5S,6R)-2-(hydroxymethyl)-6-[5-hydroxy-2-(trifluoromethoxy)phenyl]tetrahydropyran-3,4,5-triol]
Kd: 37.4 ± 17.2 nM

OC[C@H]1O[C@H](c2cc(O)ccc2F)[C@@H](O)[C@@H](O)[C@@H]1O [Compound 192, (2R,3S,4R,5S,6R)-2-(2-fluoro-5-hydroxy-phenyl)-6-(hydroxymethyl)tetrahydropyran-3,4,5-triol]
Kd: 56.5 ± 9.1 nM

OC[C@H]1O[C@H](c2ccc(F)c(O)c2)[C@@H](O)[C@@H](O)[C@@H]1O [Compound 193, (2R,3S,4R,5S,6R)-2-(4-fluoro-3-hydroxy-phenyl)-6-(hydroxymethyl)tetrahydropyran-3,4,5-triol]
Kd: 30.6 ± 1.1 nM

Cc1cc(O)cc([C@H]2O[C@H](CO)[C@@H](O)[C@H](O)[C@@H]2O)c1 [Compound 194, (2R,3S,4R,5S,6R)-2-(hydroxymethyl)-6-(3-hydroxy-5-methyl-phenyl)tetrahydropyran-3,4,5-triol]
Kd: 31 ± 29.4 nM

CNC(=O)c1ccc(Oc2ccc(OC(F)(F)F)c([C@H]3O[C@H](CO)[C@@H](O)[C@H](O)[C@@H]3O)c2)cc1 [Compound 195, N-methyl-4-[4-(trifluoromethoxy)-3-[(2R,3S,4R,5S,6R)-3,4,5-trihydroxy-6-(hydroxymethyl)tetrahydropyran-2-yl]phenoxy]benzamide]
Kd: 178 ± 60.9 nM
